Where two headings read alike, the source gives them in different places.
Assays:
[1] = rat
Protocol: The gallium-67 complexes are prepared by ligand exchange from gallium-67 chloride, employing the tris(acetylacetonato)gallium(III) complex as an intermediate. The Ga-67 acetylacetonate in ethanol is reacted with the chelating ligand or ligand precursor at elevated temperature to form rapidly the desired gallium radiopharmaceutical. […] The biodistribution of several radiopharmaceuticals was determined in rats following intravenous injection using techniques previously described (M. A. Green, Nuclear Medicine and Biology 14:59-61, 1987; E. John and M. A. Green, J. Medicinal Chemistry, 33:1764-1770, 1990).
Under ether anesthesia, 1 to 3 μCi (0.1-0.2 mL) of no-carrier-added Ga-67 compound was administered by bolus injection into the femoral vein of male Sprague-Dawley rats. The ether anesthetized rats were sacrificed by decapitation at given time intervals post-injection, organs of interest were removed, weighed, and the gallium-67 activity counted. The biodistribution was calculated as a percentage of the injected dose per gram of tissue and percentage of injected dose per organ for each sample.

[2] = Octanol/water partition coefficient of radiolabeled gallium complexes; format: physicochemical
Protocol: Octanol/water partition coefficients were measured by vortex mixing 1 mL of 1-octanol and 1 mL of isotonic Tris buffer (pH 7.0) with a 1-5 μL sample of the radiolabeled gallium complex. Following centrifugation at >1200 g for 5 minutes, the octanol and aqueous phases were sampled and counted in an automatic well counter.

For “^67 GaL^+ L = [(4-deaSal)2 DM-BAPEN, ^67 GaL^+ L = [bis(diethylaminosalicylaldimino)-N,N'-bis(2,2'-dimethyl-3-aminopropyl)ethylenediamine]]”, the “% Injected Dose per Gram Tissue, Blood” value ([1]; i.v., 1 min) was 1.91 ± 0.22 % Injected Dose per Gram Tissu, the “% Injected Dose per Gram Tissue, Brain” value ([1]; i.v., 1 min) was 0.05 ± 0.01 % Injected Dose per Gram Tissu and the “% Injected Dose per Gram Tissue, Heart” value ([1]; i.v., 1 min) was 0.85 ± 0.09 % Injected Dose per Gram Tissu. The “% Injected Dose per Gram Tissue, Kidney (one)” value ([1]; i.v., 1 min) was 4.85 ± 0.75 % Injected Dose per Gram Tissu, the “% Injected Dose per Gram Tissue, Liver” value ([1]; i.v., 1 min) was 4.91 ± 0.36 % Injected Dose per Gram Tissu and the “% Injected Dose per Gram Tissue, Lungs” value ([1]; i.v., 1 min) was 4.23 ± 0.68 % Injected Dose per Gram Tissu. The “% Injected Dose per Gram Tissue, Spleen” value ([1]; i.v., 1 min) was 1.61 ± 0.44 % Injected Dose per Gram Tissu, the “% Injected Dose per Organ, Blood” value ([1]; i.v., 1 min) was 30.59 ± 3.45 % Injected Dose per Organ and the “% Injected Dose per Organ, Brain” value ([1]; i.v., 1 min) was 0.08 ± 0.02 % Injected Dose per Organ. For the same molecule, the “% Injected Dose per Organ, Heart” value ([1]; i.v., 1 min) was 0.66 ± 0.06 % Injected Dose per Organ, the “% Injected Dose per Organ, Kidney (one)” value ([1]; i.v., 1 min) was 4.25 ± 0.52 % Injected Dose per Organ and the “% Injected Dose per Organ, Liver” value ([1]; i.v., 1 min) was 47.04 ± 6.53 % Injected Dose per Organ. The “% Injected Dose per Organ, Lungs” value ([1]; i.v., 1 min) was 5.30 ± 0.23 % Injected Dose per Organ, the “% Injected Dose per Organ, Spleen” value ([1]; i.v., 1 min) was 1.12 ± 0.34 % Injected Dose per Organ and the “% injected dose in heart, 1 min” value ([1]; i.v., 1 min, preliminary studies) was 0.66 ± 0.06 % injected dose. For the same molecule, the “% Injected Dose per Gram Tissue, Blood” value ([1]; i.v., 15 min) was 0.30 ± 0.04 % Injected Dose per Gram Tissu, the “% Injected Dose per Gram Tissue, Brain” value ([1]; i.v., 15 min) was 0.02 ± 0.01 % Injected Dose per Gram Tissu and the “% Injected Dose per Gram Tissue, Heart” value ([1]; i.v., 15 min) was 0.57 ± 0.05 % Injected Dose per Gram Tissu. For the same molecule, the “% Injected Dose per Gram Tissue, Kidney (one)” value ([1]; i.v., 15 min) was 5.55 ± 0.50 % Injected Dose per Gram Tissu, the “% Injected Dose per Gram Tissue, Liver” value ([1]; i.v., 15 min) was 4.78 ± 1.20 % Injected Dose per Gram Tissu and the “% Injected Dose per Gram Tissue, Lungs” value ([1]; i.v., 15 min) was 2.06 ± 0.21 % Injected Dose per Gram Tissu. For the same molecule, the “% Injected Dose per Gram Tissue, Spleen” value ([1]; i.v., 15 min) was 3.15 ± 0.45 % Injected Dose per Gram Tissu, the “% Injected Dose per Organ, Blood” value ([1]; i.v., 15 min) was 5.08 ± 0.71 % Injected Dose per Organ and the “% Injected Dose per Organ, Brain” value ([1]; i.v., 15 min) was 0.00 ± 0.00 % Injected Dose per Organ. The “% Injected Dose per Organ, Heart” value ([1]; i.v., 15 min) was 0.46 ± 0.04 % Injected Dose per Organ, the “% Injected Dose per Organ, Kidney (one)” value ([1]; i.v., 15 min) was 4.79 ± 0.38 % Injected Dose per Organ and the “% Injected Dose per Organ, Liver” value ([1]; i.v., 15 min) was 50.24 ± 11.08 % Injected Dose per Organ. The “% Injected Dose per Organ, Lungs” value ([1]; i.v., 15 min) was 2.71 ± 0.22 % Injected Dose per Organ, the “% Injected Dose per Organ, Spleen” value ([1]; i.v., 15 min) was 2.29 ± 0.42 % Injected Dose per Organ and the “% Injected Dose per Gram Tissue, Blood” value ([1]; i.v., 120 min) was 0.06 ± 0.01 % Injected Dose per Gram Tissu. For the same molecule, the “% Injected Dose per Gram Tissue, Brain” value ([1]; i.v., 120 min) was 0.00 ± 0.00 % Injected Dose per Gram Tissu, the “% Injected Dose per Gram Tissue, Heart” value ([1]; i.v., 120 min) was 0.47 ± 0.02 % Injected Dose per Gram Tissu and the “% Injected Dose per Gram Tissue, Kidney (one)” value ([1]; i.v., 120 min) was 5.28 ± 0.32 % Injected Dose per Gram Tissu. The “% Injected Dose per Gram Tissue, Liver” value ([1]; i.v., 120 min) was 0.96 ± 0.14 % Injected Dose per Gram Tissu, the “% Injected Dose per Gram Tissue, Lungs” value ([1]; i.v., 120 min) was 1.02 ± 0.13 % Injected Dose per Gram Tissu and the “% Injected Dose per Gram Tissue, Spleen” value ([1]; i.v., 120 min) was 2.89 ± 0.21 % Injected Dose per Gram Tissu. For the same molecule, the “% Injected Dose per Organ, Blood” value ([1]; i.v., 120 min) was 1.06 ± 0.20 % Injected Dose per Organ, the “% Injected Dose per Organ, Brain” value ([1]; i.v., 120 min) was 0.02 ± 0.01 % Injected Dose per Organ and the “% Injected Dose per Organ, Heart” value ([1]; i.v., 120 min) was 0.40 ± 0.04 % Injected Dose per Organ. For the same molecule, the “% Injected Dose per Organ, Kidney (one)” value ([1]; i.v., 120 min) was 5.17 ± 0.19 % Injected Dose per Organ, the “% Injected Dose per Organ, Liver” value ([1]; i.v., 120 min) was 11.06 ± 2.46 % Injected Dose per Organ and the “% Injected Dose per Organ, Lungs” value ([1]; i.v., 120 min) was 1.31 ± 0.07 % Injected Dose per Organ. For the same molecule, the “% Injected Dose per Organ, Spleen” value ([1]; i.v., 120 min) was 2.09 ± 0.18 % Injected Dose per Organ, the “% injected dose in heart, 2 h” value ([1]; i.v., 2 h, preliminary studies) was 0.40 ± 0.04 % injected dose and the Heart/Blood ([1]; ratio, i.v., 1 min) was 0.45 ± 0.04. The Heart/Liver ([1]; ratio, i.v., 1 min) was 0.17 ± 0.03, the Heart/Lungs ([1]; ratio, i.v., 1 min) was 0.20 ± 0.02 and the Heart/Blood ([1]; ratio, i.v., 15 min) was 1.94 ± 0.33. For the same molecule, the Heart/Liver ([1]; ratio, i.v., 15 min) was 0.13 ± 0.04, the Heart/Lungs ([1]; ratio, i.v., 15 min) was 0.28 ± 0.04 and the Heart/Blood ([1]; ratio, i.v., 120 min) was 8.06 ± 1.62. For the same molecule, the Heart/Liver ([1]; ratio, i.v., 120 min) was 0.50 ± 0.07, the Heart/Lungs ([1]; ratio, i.v., 120 min) was 0.46 ± 0.07 and the “log P” value ([2]; 1-octanol / isotonic Tris buffer pH 7.0) was 2.84.

For `COc1ccc(C=NCCCNCCNCCCN=Cc2ccc(OC)cc2[O-])c([O-])c1.[67Ga+3]` [(4-MeOSal)2 BAPEN, ^67 GaL^+ L = [bis(4-methoxysalicylaldimino)-N,N'-bis(3-aminopropyl)-ethylenediamine]], the “% injected dose in heart, 1 min” value ([1]; in vivo, iv) was 0.67 ± 0.08 % injected dose, the “% injected dose in heart, 2 h” value ([1]; in vivo, iv) was 0.65 ± 0.05 % injected dose and the “% Injected Dose per Gram Tissue, Blood” value ([1]; in vivo, iv, 1 min) was 0.32 ± 0.02. The “% Injected Dose per Gram Tissue, Brain” value ([1]; in vivo, iv, 1 min) was 0.02 ± 0.01, the “% Injected Dose per Gram Tissue, Heart” value ([1]; in vivo, iv, 1 min) was 0.96 ± 0.07 and the “% Injected Dose per Gram Tissue, Kidney (one)” value ([1]; in vivo, iv, 1 min) was 11.08 ± 0.88. The “% Injected Dose per Gram Tissue, Liver” value ([1]; in vivo, iv, 1 min) was 3.05 ± 0.27, the “% Injected Dose per Gram Tissue, Lungs” value ([1]; in vivo, iv, 1 min) was 0.91 ± 0.09 and the “% Injected Dose per Gram Tissue, Spleen” value ([1]; in vivo, iv, 1 min) was 0.31 ± 0.05. For the same molecule, the Heart/Blood ([1]; in vivo, iv, 1 min) was 2.99 ± 0.15, the “% Injected Dose per Gram Tissue, Blood” value ([1]; in vivo, iv, 2 h) was 0.03 ± 0.01 and the “% Injected Dose per Gram Tissue, Brain” value ([1]; in vivo, iv, 2 h) was 0.01 ± 0.003. The “% Injected Dose per Gram Tissue, Heart” value ([1]; in vivo, iv, 2 h) was 0.92 ± 0.07, the “% Injected Dose per Gram Tissue, Kidney (one)” value ([1]; in vivo, iv, 2 h) was 2.19 ± 0.08 and the “% Injected Dose per Gram Tissue, Liver” value ([1]; in vivo, iv, 2 h) was 0.63 ± 0.20. For the same molecule, the “% Injected Dose per Gram Tissue, Lungs” value ([1]; in vivo, iv, 2 h) was 0.32 ± 0.02, the “% Injected Dose per Gram Tissue, Spleen” value ([1]; in vivo, iv, 2 h) was 0.17 ± 0.03 and the Heart/Blood ([1]; in vivo, iv, 2 h) was 30.58 ± 2.22. For the same molecule, the “% Injected Dose per Gram Tissue, Blood” value ([1]; in vivo, iv, […]) was 0.06 ± 0.01, the “% Injected Dose per Gram Tissue, Brain” value ([1]; in vivo, iv, […]) was 0.01 ± 0.001 and the “% Injected Dose per Gram Tissue, Heart” value ([1]; in vivo, iv, […]) was 1.01 ± 0.08. The “% Injected Dose per Gram Tissue, Kidney (one)” value ([1]; in vivo, iv, […]) was 4.47 ± 0.62, the “% Injected Dose per Gram Tissue, Liver” value ([1]; in vivo, iv, […]) was 1.71 ± 0.40 and the “% Injected Dose per Gram Tissue, Lungs” value ([1]; in vivo, iv, […]) was 0.38 ± 0.05. The “% Injected Dose per Gram Tissue, Spleen” value ([1]; in vivo, iv, […]) was 0.22 ± 0.02, the Heart/Blood ([1]; in vivo, iv, […]) was 17.62 ± 0.31 and the “log P” value ([2]; octanol/tris buffer, pH 7) was 0.80.

From patent US5324502A, “Radiopharmaceuticals for imaging the heart” (priority 1992, dated 1994)
